ChEMBL document CHEMBL1130805, “The synthesis and evaluation of benzannelated-azatoxins: the benzazatoxins” (Bioorg Med Chem Lett, 1998)
pIC50: −log10 of the molar value. Calls of active or inactive are those of the source. The rule behind the calls is not given here.

Assays:
MCF7 = assay: Compound was evaluated for growth inhibition against MCF-7 cells using cellular assay; format: functional; conditions: Homo sapiens
Bos taurus = species on record: Bos taurus; assay: Compound was evaluated for inhibition of tubulin polymerization in bovine brain tubulin; format: functional
NCI-H520 = assay: Compound was evaluated for growth inhibition against NCI-H520 cells using cellular assay; format: functional; conditions: Homo sapiens
[1] = target: T1, DNA topoisomerase II (Homo sapiens) (UniProt P11388+Q02880); assay: Compound was evaluated for its ability to affect topoisomerase II inhibition; inactive; format: protein assay
PC-3 = assay: Compound was evaluated for growth inhibition against PC-3 cells using cellular assay; format: functional; conditions: Homo sapiens
[2] = target: T1, DNA topoisomerase II (Homo sapiens); assay: Compound was evaluated for its ability to affect topoisomerase II inhibition; active; format: protein assay

Row | Compound | GI50 (MCF7) [µM] | pIC50 (Bos taurus) | GI50 (NCI-H520) [µM] | Activity [1] | GI50 (PC-3) [µM] | Activity [2]
1 | COc1cc([C@@H]2c3[nH]c4cc5ccccc5cc4c3C[C@H]3COC(=O)N32)cc(OC)c1O | 5 | 5.17 | 4 | inactive | 10 | 
2 | COc1cc2c(c(OC)c1OC)-c1ccc(OC)c(=O)cc1[C@@H](NC(C)=O)CC2 [COLCHICINE] | < 0.05 | 4.93 | < 0.05 | inactive | < 0.05 | 
3 | COc1cc([C@@H]2c3[nH]c4c(ccc5ccccc54)c3C[C@H]3COC(=O)N32)cc(OC)c1O | > 50 | 4.29 | > 50 | inactive | > 50 | 
4 | COc1cc([C@@H]2c3[nH]c4ccccc4c3C[C@H]3COC(=O)N32)cc(OC)c1O | 0.25 | 4.69 | 0.12 |  | 0.2 | Active
5 | COc1cc([C@@H]2c3[nH]c4ccc5ccccc5c4c3C[C@H]3COC(=O)N32)cc(OC)c1O | 2 | 5.25 | 0.8 | inactive | 2 | 
